Assay results: BindingDB's records for doi:10.1021/jm00145a012 (1985)
pIC50: −log10 of the molar value.

These molecules were tested against Dihydrofolate reductase (Bos taurus) (UniProt P00376) (assay: In vitro inhibitory concentration against beef liver dihydrofolate reductase).
Dihydrofolate reductase (Bos taurus), sequence (P00376 whole entry, looked up): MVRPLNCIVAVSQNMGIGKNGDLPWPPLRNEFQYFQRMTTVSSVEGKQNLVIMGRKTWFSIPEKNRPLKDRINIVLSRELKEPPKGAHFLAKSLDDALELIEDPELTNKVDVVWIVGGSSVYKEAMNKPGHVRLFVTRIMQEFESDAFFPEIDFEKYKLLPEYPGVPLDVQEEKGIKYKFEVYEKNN

SMILES | pIC50
Nc1nc2ncc(CCc3ccc(C(=O)N[C@@H](CCC(=O)O)C(=O)O)cc3)cc2c(=O)[nH]1 | 4.31
Nc1nc(N)c2c(n1)NCC(CCc1ccc(C(=O)NC(CCC(=O)O)C(=O)O)cc1)C2 (centres undefined) [2-{4-[2-(2,4-Diamino-5,6,7,8-tetrahydro-pyrido[2,3-d]pyrimidin-6-yl)-ethyl]-benzoylamino}-pentanedioic acid] | 7.15
Nc1nc(N)c2cc(CCc3ccc(C(=O)NC(CCC(=O)O)C(=O)O)cc3)cnc2n1 (centres undefined) [2-{4-[2-(2,4-Diamino-pyrido[2,3-d]pyrimidin-6-yl)-ethyl]-benzoylamino}-pentanedioic acid] | 7.37
Nc1nc2c(c(=O)[nH]1)CC(CCc1ccc(C(=O)NC(CCC(=O)O)C(=O)O)cc1)CN2 (centres undefined) [(DDATHF) 5,10-Dideazatetrahydrofolic acid2-{4-[2-(2-Amino-4-oxo-3,4,5,6,7,8-hexahydro-pyrido[2,3-d]pyrimidin-6-yl)-ethyl]-benzoylamino}-pentanedioic acid] | 3.25
